Earlier results, collected in patent publication US5478816A, “Liquid vitamin formulations containing vitamin D esters” (Bristol-Myers Squibb Company, priority 1993, dated 1995).
Read-outs that look alike come from different tables or passages of the source.

Settings: cited from earlier work

Compound | stability (in corn oil, propylene glycol, and milk) | stability (in propylene glycol when diluted in water) | stability (at a mid-pH) | stability (in an alkaline medium or in the presence of light and air) | stability (in an aqueous environment) | stability (in the presence of minerals)
C=C1CC[C@H](O)C/C1=C/C=C1\CCC[C@]2(C)[C@@H]([C@H](C)/C=C/[C@H](C)C(C)C)CC[C@@H]12 [Vitamin D2] | stable | deteriorate |  |  |  | 
vitamin D |  |  | stable | slowly destroyed | unstable | unstable
